Structures can show the parent of a compound that is named as a salt. Where two headings read alike, the source gives them in different places.
Assay: In Vitro Cyclization Assay (disappearance of test compound in buffer, half-life of degradation)
Assay type: physicochemical
Details: 20° C., approximately 2.2 mM, read-out: Ave (half-life of degradation) (converted)
Experimental: 1. In Vitro Cyclization Assay
This assay measures the ability of a test compound of the present invention to cyclize in vitro. Also determined is the time required to effect such cyclization.
Test compounds are dissolved (approximately 2.2 mM) in 50 mM phosphate/citrate buffers at a variety of pHs, including pH 7.4 and pH 8.5. The disappearance of the test compounds is observed over time by incubating the solutions at 20° C. and periodically quantifying the concentration of the remaining compound. Since the rate of disappearance follows first order kinetics, the half-life of degradation is calculated from the slope of the regression of natural logarithm transformed data on time. For pH 10 half-life results, CPBG is used: The half-life assay is conducted in phosphate/citrate buffer to test compound stability at pH 6, pH 7.4 and pH 8.5, but citrate/phosphate/glycine buffer is used when compounds were tested at pH 10.

[1] = nominal pH 6, 50 mM phosphate/citrate buffer
[2] = nominal pH 7.4, 50 mM phosphate/citrate buffer
[3] = nominal pH 8.5, 50 mM phosphate/citrate buffer
[4] = nominal pH 10, citrate/phosphate/glycine buffer

| Structure (SMILES) | half-life at 2.2 mM [1] | half-life at 2.2 mM [2] | half-life at 2.2 mM [3] | half-life at 2.2 mM [4] |
| --- | --- | --- | --- | --- |
| CN(CCCN)C(=O)Oc1ccc2c3c1O[C@H]1C(=O)CC[C@H]4[C@@H](C2)N(C)CC[C@]314 [Comparison, Hydromorphone 3-(N-methyl-N-(3-amino)propyl)carbamate Hydrochloride, reference compound] | 3190 h | 224 h | 74 h | 1.33 h |
| CN(CC(F)(F)CN)C(=O)Oc1ccc2c3c1OC1C(=O)CCC4C(C2)N(C)CCC314 (stereo not drawn) [Example 1, Hydromorphone 3-(N-methyl-N-(3-amino-2,2-difluoro)propyl)carbamate Hydrochloride] | 99.1 h | 9.43 h | 6.13 h | 8.04 h |
| CN(CC(F)CN)C(=O)Oc1ccc2c3c1O[C@H]1C(=O)CC[C@H]4[C@@H](C2)N(C)CC[C@]314 (stereo partly drawn) [Example 2, Hydromorphone 3-(N-methyl-N-(3-amino-2-fluoro)propyl)carbamate Hydrochloride] | 334 h | 18.1 h | 5.18 h | 1.68 h |

Reference: patent US9023860B2, “Pro-drugs for controlled release of biologically active compounds” (Signature Therapeutics, Inc., priority 2007, dated 2015)
